Consider five molecules from patent publication US7541359B2, “N-heteroarylpiperazinyl ureas as modulators of fatty acid amide hydrolase” (Janssen Pharmaceutica N.V., priority 2005, dated 2009).

Test [1] concerns rats. To be noted: cited from earlier work.
Test [2] deals with rats. To be noted: cited from earlier work. This is another data set of the same source.
For test [3], the system named is rats. To be noted: cited from earlier work. The source holds these as a separate data set.
Test [4] deals with rats. To be noted: rat; cited from earlier work.
The subject of test [5] is rats. The settings on record: cited from earlier work. This is another data set of the same source.
The test system of test [6] is rats. To be noted: cited from earlier work. This is another data set of the same source.
In test [7] the target is T1, FAAH (Homo sapiens, UniProt O00519).
T1 sequence (O00519 1-579): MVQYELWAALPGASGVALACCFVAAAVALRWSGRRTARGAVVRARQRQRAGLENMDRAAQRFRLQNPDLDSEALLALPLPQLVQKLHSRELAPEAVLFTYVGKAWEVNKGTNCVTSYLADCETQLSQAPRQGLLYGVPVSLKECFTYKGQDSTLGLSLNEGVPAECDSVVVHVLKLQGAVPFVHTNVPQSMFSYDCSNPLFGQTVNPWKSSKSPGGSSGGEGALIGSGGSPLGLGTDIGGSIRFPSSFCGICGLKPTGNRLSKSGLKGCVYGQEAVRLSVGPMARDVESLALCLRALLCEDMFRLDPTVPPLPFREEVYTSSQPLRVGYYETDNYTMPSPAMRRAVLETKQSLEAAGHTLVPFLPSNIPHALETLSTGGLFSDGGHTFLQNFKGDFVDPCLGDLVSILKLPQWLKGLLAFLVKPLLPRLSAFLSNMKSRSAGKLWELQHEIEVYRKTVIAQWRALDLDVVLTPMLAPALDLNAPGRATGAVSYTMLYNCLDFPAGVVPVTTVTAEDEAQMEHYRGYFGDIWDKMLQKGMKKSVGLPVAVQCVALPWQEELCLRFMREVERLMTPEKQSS
The arrangement: T84 frozen pellets (contents of 1-4×15 cm culture dishes) were homogenized in 300 mL of FAAH assay buffer; endogenous in cells; host or cells: T84 cells (homogenate). The settings on record: cited from earlier work.

The next test has as its system CREAE mice. The settings on record: model of multiple sclerosis; cited from earlier work.
The target in test [8] is T1, FAAH. Put plainly: Assay Method 2: FAAH assay, homogenate of SK-N-MC cells transfected with human FAAH. The arrangement: expressed in transfected cells; host or cells: SK-N-MC cells, electroporated, G418-selected clones. The settings on record: human FAAH transfected SK-N-MC cell homogenate; 3H-AEA tracer 80 nM; rt 1 h. It counts as biochemical. The procedure:
Assay Method 2 A. Transfection of Cells with Human FAAH
(§1) A 10-cm tissue culture dish with a confluent monolayer of SK-N-MC cells was split 2 days (d) prior to transfection. Using sterile technique, the media was removed and the cells were detached from the dish by the addition of trypsin. One fifth of the cells were then placed onto a new 10-cm dish. Cells were grown in a 37° C. incubator with 5% CO2 in Minimal Essential Media Eagle with 10% Fetal Bovine Serum. After 2 d, cells were approximately 80% confluent. These cells were removed from the dish with trypsin and pelleted in a clinical centrifuge. The pellet was re-suspended in 400 μL complete media and transferred to an electroporation cuvette with a 0.4 cm gap between the electrodes. Supercoiled human FMH cDNA (1 μg) was added to the cells and mixed. The voltage for the electroporation was set at 0.25 kV, and the capacitance was set at 960 μF. After electroporation, the cells were diluted into complete media (10 mL) and plated onto four 10-cm dishes. Because of the variability in the efficiency of electroporation, four different concentrations of cells were plated. The ratios used were 1:20, 1:10, and 1:5, with the remainder of the cells being added to the fourth dish. The cells were allowed to recover for 24 h before adding the selection media (complete media with 600 μg/mL G418). After 10 d, dishes were analyzed for surviving colonies of cells. Dishes with well-isolated colonies were used. Cells from individual colonies were isolated and tested.
(§2) The assay mixture consisted of 50 μL of the cell homogenate, 10 μL of the test compound, and 40 μL of anandamide [1-^3H-ethanolamine] (^3H-AEA, Perkin-Elmer, 10.3 Ci/mmol), which was added last, for a final tracer concentration of 80 nM. The reaction mixture was incubated at rt for 1 h. During the incubation, 96-well Multiscreen filter plates (catalog number MAFCNOB50; Millipore, Bedford, Me., USA) were loaded with 25 μL of activated charcoal (Multiscreen column loader, catalog number MACL09625, Millipore) and washed once with 100 μL of MeOH. Also during the incubation, 96-well DYNEX MicroLite plates (catalog number NL510410) were loaded with 100 μL of MicroScint40 (catalog number 6013641, Packard Bioscience, Meriden, Conn., USA). After the 1 h incubation, 60 μL of the reaction mixture were transferred to the charcoal plates, which were then assembled on top of the DYNEX plates using Centrifuge Alignment Frames (catalog number MACF09604, Millipore). The unbound labeled ethanolamine was centrifuged through to the bottom plate (5 min at 2000 rpm), which was preloaded with the scintillant, as described above. The plates were sealed and left at rt for 1 h before counting on a Hewlett Packard TopCount.

In the next test the target is T2, Rat FAAH (Rattus norvegicus, UniProt P97612).
T2 construct: expressed in transfected cells; host or cells: SK-N-MC cells, electroporated, G418-selected clones
T2 sequence (P97612 1-579): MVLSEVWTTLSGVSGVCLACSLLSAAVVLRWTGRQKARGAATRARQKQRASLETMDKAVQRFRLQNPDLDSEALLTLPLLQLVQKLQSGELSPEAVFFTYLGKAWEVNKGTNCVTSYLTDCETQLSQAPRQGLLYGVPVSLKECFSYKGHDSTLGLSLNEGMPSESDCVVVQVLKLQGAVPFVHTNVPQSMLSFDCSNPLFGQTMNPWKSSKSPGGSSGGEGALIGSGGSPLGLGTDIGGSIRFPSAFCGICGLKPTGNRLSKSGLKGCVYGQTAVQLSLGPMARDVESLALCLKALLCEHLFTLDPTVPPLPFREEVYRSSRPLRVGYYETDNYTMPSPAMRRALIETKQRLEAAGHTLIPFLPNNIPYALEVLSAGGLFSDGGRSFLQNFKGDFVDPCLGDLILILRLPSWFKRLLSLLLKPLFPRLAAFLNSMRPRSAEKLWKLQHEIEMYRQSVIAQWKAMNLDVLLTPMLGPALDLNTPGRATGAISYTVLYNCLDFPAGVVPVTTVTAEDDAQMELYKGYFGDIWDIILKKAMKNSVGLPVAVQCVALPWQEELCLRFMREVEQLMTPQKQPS
The test is described as follows: Assay Method 3: FAAH assay, homogenate of SK-N-MC cells transfected with rat FAAH. Format: biochemical. The settings on record: rat FAAH transfected SK-N-MC cell homogenate; 3H-AEA tracer 80 nM; rt 1 h. The method, then:
Assay Method 3 A. Transfection of Cells with Rat FAAH
as §1, with “rat” for “human”, “The ratios used were 1:20, 1:10, and 1:5, with the remainder of the cells being added to the fourth dish. The cells were allowed to recover for 24 h before adding the selection media (complete media with 600 μg/mL G418).” left out
as §2, with “MAFCNOB50:” for “MAFCNOB50;”, “Mass.,” for “Me.,”, “Also during the incubation, 96-well DYNEX MicroLite plates (catalog number NL510410) were loaded with 100 μL of MicroScint40 (catalog number 6013641, Packard Bioscience, Meriden, Conn., USA).” left out

Take `Cc1nc(-c2ccccc2)c(-c2ccccc2)n1CCCCCCNC(=O)Oc1ccccc1F` [BMS-1]: the “analgesic effect in the Hargraves test of acute thermal nociception” value in the test on rats [1] was “analgesic effect”. The “analgesic effect in the Chung spinal nerve ligation model of neuropathic pain” value with rats [2] was “analgesic effect”.
Turning to `NC(=O)c1cccc(-c2cccc(OC(=O)NC3CCCCC3)c2)c1` [URB-597], in the test with rats [3], the “analgesic efficacy/activity in the hot plate test” value is reported as “analgesic efficacy”. Moreover, in the test with rats [4], the “analgesic efficacy in the formalin test” value is reported as “analgesic efficacy”. For the same molecule, the “efficacy in the zero plus maze model of anxiety” value in the test on rats [5] is on record as “efficacy”.
Consider `O=C(CCCCCCc1ccccc1)c1ncc(-c2ccccn2)o1` [OL-135], for which the “analgesic efficacy/activity in the hot plate test” value in the test on rats [3] is “analgesic activity”. Also, the “analgesic activity in the tail emersion test of thermal nociception” value with rats [6] is given as “analgesic activity”. The “inhibition of FAAH” value on FAAH [7] is reported as “potent inhibitor”.
For `CCCCCCCCCCCCCCCCS(=O)(=O)F` [AM374], the reduction of spasticity entry in the test on CREAE mice was “significantly reduce spasticity”.
On to `O=C(Nc1ccccc1)N1CCN(c2nc(-c3ccoc3)ns2)CC1` [Example 41, 4-(3-Furan-3-yl-[1,2,4]thiadiazol-5-yl)-piperazine-1-carboxylic acid phenylamide], for which the IC50 (commonly the concentration at which inhibition is half-maximal) was determined as 350 nM against FAAH [8] and 590 nM against Rat FAAH.
